From ChEMBL document CHEMBL5465560, “Selectivity Literature for EUbOPEN Chemogenomic Library” (2024) come the findings set out here.

Assay [1] deals with Serine/threonine-protein kinase B-raf (Homo sapiens), P15056 [V600E]. Briefly: (§1) Selectivity interaction (KinomeScan (DiscoverX)) EUB0001619a BRAF. The settings on record: at 1 µM.
Assay [2] addresses Serine/threonine-protein kinase B-raf (Homo sapiens) (UniProt P15056). The description is as §1. The settings on record: at 1 µM.
Assay [3] addresses T1, Scaffold protein ILK (Homo sapiens) (UniProt Q13418).
T1 sequence (whole entry): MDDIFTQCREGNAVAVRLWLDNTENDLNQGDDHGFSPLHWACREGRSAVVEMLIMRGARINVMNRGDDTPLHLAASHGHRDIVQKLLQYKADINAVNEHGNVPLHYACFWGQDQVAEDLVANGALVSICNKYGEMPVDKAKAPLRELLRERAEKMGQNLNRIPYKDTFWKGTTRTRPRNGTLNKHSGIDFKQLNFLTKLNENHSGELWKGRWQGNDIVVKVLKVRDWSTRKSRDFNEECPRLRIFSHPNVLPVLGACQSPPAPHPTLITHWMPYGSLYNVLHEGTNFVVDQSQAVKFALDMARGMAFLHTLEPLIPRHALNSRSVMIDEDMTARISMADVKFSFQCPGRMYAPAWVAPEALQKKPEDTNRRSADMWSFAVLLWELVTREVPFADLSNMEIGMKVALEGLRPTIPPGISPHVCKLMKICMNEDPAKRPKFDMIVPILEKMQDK
Kind of assay: Selectivity interaction (ActivX KiNativ screen (ex vivo kinase selectivity in human PBMCs)) EUB0001619a ILK. In kind it is cell-based. The conditions noted are these: PBMC, at 1 µM.

Assay [4] addresses T2, Mitogen-activated protein kinase kinase kinase 7 (Homo sapiens) (UniProt O43318).
T2 sequence (whole entry): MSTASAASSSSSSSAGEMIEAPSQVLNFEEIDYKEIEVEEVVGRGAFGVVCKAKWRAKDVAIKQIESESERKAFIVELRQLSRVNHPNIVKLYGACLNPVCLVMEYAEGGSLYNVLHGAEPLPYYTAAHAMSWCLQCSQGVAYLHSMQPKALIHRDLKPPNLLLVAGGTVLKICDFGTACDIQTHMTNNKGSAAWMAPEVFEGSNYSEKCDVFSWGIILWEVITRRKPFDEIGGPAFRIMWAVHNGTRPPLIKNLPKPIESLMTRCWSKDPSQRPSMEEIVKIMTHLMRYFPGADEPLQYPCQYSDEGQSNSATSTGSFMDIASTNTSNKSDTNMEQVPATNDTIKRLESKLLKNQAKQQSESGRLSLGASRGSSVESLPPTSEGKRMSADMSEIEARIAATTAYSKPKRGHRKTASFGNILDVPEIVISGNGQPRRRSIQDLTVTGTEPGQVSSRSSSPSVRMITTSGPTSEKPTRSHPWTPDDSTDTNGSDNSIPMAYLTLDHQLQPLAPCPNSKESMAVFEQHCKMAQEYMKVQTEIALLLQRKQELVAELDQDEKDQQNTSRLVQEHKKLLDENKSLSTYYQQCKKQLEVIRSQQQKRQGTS
Kind of assay: Selectivity interaction (ActivX KiNativ screen (ex vivo kinase selectivity in human PBMCs)) EUB0001619a MAP3K7. In kind it is cell-based. The settings on record: PBMC, at 1 µM.

For assay [5], the target named is T3, STE20-related kinase adapter protein alpha (Homo sapiens) (UniProt Q7RTN6).
T3 sequence (whole entry): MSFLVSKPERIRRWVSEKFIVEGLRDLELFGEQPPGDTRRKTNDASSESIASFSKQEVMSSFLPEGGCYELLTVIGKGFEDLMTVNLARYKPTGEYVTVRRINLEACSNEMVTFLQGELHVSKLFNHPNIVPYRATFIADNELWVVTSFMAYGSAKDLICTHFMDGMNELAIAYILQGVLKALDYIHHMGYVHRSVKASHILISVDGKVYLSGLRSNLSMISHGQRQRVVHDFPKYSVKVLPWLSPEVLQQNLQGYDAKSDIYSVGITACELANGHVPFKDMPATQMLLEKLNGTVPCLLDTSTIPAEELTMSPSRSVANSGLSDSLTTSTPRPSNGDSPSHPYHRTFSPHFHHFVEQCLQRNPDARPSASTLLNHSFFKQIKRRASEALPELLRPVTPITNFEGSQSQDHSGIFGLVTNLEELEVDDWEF
Kind of assay: Selectivity interaction (ActivX KiNativ screen (kinase selectivity in THP-1 cell lysates)) EUB0000639a STRADA. In kind it is subcellular. The conditions noted are these: lysate, at 0.04 µM.

Assay [6] addresses Sodium-dependent noradrenaline transporter (Homo sapiens, UniProt P23975). Kind of assay: Selectivity interaction (Safety Panel 44tm (Eurofins)) EUB0000162b SLC6A2. The conditions noted are these: at 10 µM.
Assay [7] addresses T4, Ephrin type-B receptor 4 (Homo sapiens) (UniProt P54760).
T4 sequence (whole entry): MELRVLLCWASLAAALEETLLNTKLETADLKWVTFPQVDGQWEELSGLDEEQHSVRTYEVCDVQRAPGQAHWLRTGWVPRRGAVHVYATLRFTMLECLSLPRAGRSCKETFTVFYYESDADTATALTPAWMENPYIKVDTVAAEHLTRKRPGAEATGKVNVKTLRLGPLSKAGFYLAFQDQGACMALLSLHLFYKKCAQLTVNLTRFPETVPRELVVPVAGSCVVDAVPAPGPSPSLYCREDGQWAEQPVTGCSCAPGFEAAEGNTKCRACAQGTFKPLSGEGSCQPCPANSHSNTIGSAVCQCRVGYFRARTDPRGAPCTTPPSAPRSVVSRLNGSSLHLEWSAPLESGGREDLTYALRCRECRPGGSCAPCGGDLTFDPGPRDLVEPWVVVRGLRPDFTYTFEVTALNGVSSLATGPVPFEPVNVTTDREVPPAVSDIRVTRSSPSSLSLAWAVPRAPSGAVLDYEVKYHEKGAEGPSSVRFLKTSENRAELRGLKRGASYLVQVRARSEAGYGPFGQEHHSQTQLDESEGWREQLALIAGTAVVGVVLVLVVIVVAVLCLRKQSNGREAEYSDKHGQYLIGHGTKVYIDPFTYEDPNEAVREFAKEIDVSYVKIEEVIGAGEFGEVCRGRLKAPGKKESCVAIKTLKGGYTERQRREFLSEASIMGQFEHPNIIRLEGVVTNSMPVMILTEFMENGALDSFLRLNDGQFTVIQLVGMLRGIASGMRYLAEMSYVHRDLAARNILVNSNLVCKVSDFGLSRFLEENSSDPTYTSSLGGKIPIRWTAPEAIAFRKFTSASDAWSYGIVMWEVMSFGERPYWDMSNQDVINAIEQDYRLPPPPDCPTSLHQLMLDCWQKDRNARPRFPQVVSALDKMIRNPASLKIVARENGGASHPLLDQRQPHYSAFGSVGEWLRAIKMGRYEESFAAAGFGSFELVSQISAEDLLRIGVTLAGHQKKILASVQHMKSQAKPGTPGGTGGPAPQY
Kind of assay: Selectivity interaction (ProQinase) EUB0000171b EPHB4.

The target in assay [8] is Mitotic checkpoint serine/threonine-protein kinase BUB1 (Homo sapiens, UniProt O43683). Briefly: Selectivity interaction (KinomeScan (DiscoverX)) EUB0001049a BUB1. The settings on record: at 1 µM.
Chain of Mitotic checkpoint serine/threonine-protein kinase BUB1 (O43683 whole entry, looked up): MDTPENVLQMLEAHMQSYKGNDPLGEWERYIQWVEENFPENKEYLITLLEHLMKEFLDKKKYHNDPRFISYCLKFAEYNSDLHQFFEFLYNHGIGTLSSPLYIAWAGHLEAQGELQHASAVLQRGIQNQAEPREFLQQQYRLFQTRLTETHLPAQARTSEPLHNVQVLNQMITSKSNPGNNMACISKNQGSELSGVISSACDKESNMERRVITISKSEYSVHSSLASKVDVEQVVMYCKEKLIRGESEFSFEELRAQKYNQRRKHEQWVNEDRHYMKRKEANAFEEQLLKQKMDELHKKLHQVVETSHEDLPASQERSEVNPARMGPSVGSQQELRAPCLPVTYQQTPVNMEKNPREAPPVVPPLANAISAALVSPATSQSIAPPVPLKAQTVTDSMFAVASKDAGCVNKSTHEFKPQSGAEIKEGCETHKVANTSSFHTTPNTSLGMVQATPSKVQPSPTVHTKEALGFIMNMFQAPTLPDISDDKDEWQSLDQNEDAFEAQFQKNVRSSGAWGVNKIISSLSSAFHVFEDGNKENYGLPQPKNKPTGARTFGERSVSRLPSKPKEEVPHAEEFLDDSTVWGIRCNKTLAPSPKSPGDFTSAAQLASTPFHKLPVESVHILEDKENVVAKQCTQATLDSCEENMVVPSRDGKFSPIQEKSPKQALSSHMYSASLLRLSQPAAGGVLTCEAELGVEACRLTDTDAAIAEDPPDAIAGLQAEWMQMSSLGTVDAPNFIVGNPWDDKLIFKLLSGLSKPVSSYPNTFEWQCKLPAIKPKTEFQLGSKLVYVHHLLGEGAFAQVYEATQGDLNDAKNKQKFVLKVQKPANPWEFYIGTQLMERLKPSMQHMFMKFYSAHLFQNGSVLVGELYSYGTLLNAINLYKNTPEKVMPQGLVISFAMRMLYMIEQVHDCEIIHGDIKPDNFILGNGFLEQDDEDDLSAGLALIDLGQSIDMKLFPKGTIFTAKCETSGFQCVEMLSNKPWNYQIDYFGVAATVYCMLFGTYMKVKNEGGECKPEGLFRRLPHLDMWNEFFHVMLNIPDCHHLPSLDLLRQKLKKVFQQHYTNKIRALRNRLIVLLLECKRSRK

Chain of Serine/threonine-protein kinase B-raf (Homo sapiens), P15056 [V600E] (P15056 whole entry V600E): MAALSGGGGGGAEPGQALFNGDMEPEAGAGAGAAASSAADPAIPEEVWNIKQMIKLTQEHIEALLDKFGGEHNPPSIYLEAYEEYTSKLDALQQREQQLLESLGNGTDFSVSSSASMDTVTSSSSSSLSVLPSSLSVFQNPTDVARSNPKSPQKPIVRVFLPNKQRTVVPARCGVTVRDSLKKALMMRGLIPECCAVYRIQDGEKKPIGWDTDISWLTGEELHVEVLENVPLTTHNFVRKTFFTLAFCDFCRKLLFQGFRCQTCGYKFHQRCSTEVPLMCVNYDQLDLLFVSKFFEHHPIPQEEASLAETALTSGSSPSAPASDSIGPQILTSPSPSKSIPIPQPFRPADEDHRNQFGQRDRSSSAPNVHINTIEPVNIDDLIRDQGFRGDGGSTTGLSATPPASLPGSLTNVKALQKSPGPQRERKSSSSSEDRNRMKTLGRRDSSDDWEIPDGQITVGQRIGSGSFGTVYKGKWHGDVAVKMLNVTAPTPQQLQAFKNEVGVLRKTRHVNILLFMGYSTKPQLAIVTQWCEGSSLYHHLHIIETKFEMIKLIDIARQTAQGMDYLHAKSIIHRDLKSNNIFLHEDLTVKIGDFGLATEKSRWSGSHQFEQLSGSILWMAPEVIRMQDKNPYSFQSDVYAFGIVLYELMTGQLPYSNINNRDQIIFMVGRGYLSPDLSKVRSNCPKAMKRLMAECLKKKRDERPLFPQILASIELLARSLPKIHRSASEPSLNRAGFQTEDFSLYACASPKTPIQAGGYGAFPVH
Chain of Sodium-dependent noradrenaline transporter (P23975 whole entry): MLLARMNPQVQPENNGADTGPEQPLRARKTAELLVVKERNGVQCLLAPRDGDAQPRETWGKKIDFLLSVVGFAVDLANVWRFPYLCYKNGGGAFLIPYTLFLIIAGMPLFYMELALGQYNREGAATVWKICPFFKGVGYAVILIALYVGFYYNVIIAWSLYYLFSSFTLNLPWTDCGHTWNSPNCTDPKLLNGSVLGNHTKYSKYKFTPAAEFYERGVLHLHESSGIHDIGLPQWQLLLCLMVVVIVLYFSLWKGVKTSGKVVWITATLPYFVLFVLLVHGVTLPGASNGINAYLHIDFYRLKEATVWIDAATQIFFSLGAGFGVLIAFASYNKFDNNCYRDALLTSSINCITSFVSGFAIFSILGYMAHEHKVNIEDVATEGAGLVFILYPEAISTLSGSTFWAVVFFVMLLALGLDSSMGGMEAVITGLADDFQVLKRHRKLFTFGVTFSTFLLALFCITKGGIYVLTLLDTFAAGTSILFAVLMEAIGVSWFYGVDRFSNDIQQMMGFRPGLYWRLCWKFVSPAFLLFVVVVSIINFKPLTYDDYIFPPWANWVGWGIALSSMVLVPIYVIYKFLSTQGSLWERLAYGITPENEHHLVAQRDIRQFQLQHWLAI
Chain of Serine/threonine-protein kinase B-raf (Homo sapiens) (P15056 whole entry): as the sequence (P15056 whole entry V600E) above, with E600V counted along it

In the case of `N#Cc1cccc(-c2c[nH]c3ncnc(N4CCOCC4)c23)c1`, the values for the % of control in assay [1] and in assay [2] were 69% and 80%, respectively. Also, the % of inhibition in assay [3] was -12%; in assay [4] it was 21%.

Turning to `CC[C@@H]1[C@H](F)C(=O)N[C@@H]1COc1nccc2cc(C(N)=O)c(OC)cc12` [ZIMLOVISERTIB], the % of inhibition in assay [5] is -6%.

In assay [6], `CN(C)C(=O)Cn1cc(-c2ccc(-c3cncc4ccccc34)cc2)cn1` yielded a % of control of 89%.

For `C=CC(=O)Nc1cccc(C(=O)Nc2ccc(Nc3cc(-c4[nH]c(SC)nc4C)ccn3)cc2)c1`, the % of control in assay [7] (at 1 µM) worked out at 110%; in assay [7] (at 5 µM) it was 111%.

`COc1cc(Nc2nc(C)cc(-c3cnn4nc(OC)ccc34)n2)cc(C(F)(F)F)c1`: in assay [8], the % of control was determined as 67%.
